From patent US7615569B2, “Inhibitors of ion channels” (Icagen, Inc., priority 2005, dated 2009)

Target: T1, hSCN3A (Homo sapiens, UniProt Q9NY46)
T1 construct: expressed in transfected cells
Assay: SCN3A inhibitory activity in HEK cells stably expressing hSCN3A (whole-cell patch clamp / radiotracer efflux HTS)
Format: cell-based
Settings: HEK cells stably transfected with hSCN3A

T1 sequence (Q9NY46 whole entry): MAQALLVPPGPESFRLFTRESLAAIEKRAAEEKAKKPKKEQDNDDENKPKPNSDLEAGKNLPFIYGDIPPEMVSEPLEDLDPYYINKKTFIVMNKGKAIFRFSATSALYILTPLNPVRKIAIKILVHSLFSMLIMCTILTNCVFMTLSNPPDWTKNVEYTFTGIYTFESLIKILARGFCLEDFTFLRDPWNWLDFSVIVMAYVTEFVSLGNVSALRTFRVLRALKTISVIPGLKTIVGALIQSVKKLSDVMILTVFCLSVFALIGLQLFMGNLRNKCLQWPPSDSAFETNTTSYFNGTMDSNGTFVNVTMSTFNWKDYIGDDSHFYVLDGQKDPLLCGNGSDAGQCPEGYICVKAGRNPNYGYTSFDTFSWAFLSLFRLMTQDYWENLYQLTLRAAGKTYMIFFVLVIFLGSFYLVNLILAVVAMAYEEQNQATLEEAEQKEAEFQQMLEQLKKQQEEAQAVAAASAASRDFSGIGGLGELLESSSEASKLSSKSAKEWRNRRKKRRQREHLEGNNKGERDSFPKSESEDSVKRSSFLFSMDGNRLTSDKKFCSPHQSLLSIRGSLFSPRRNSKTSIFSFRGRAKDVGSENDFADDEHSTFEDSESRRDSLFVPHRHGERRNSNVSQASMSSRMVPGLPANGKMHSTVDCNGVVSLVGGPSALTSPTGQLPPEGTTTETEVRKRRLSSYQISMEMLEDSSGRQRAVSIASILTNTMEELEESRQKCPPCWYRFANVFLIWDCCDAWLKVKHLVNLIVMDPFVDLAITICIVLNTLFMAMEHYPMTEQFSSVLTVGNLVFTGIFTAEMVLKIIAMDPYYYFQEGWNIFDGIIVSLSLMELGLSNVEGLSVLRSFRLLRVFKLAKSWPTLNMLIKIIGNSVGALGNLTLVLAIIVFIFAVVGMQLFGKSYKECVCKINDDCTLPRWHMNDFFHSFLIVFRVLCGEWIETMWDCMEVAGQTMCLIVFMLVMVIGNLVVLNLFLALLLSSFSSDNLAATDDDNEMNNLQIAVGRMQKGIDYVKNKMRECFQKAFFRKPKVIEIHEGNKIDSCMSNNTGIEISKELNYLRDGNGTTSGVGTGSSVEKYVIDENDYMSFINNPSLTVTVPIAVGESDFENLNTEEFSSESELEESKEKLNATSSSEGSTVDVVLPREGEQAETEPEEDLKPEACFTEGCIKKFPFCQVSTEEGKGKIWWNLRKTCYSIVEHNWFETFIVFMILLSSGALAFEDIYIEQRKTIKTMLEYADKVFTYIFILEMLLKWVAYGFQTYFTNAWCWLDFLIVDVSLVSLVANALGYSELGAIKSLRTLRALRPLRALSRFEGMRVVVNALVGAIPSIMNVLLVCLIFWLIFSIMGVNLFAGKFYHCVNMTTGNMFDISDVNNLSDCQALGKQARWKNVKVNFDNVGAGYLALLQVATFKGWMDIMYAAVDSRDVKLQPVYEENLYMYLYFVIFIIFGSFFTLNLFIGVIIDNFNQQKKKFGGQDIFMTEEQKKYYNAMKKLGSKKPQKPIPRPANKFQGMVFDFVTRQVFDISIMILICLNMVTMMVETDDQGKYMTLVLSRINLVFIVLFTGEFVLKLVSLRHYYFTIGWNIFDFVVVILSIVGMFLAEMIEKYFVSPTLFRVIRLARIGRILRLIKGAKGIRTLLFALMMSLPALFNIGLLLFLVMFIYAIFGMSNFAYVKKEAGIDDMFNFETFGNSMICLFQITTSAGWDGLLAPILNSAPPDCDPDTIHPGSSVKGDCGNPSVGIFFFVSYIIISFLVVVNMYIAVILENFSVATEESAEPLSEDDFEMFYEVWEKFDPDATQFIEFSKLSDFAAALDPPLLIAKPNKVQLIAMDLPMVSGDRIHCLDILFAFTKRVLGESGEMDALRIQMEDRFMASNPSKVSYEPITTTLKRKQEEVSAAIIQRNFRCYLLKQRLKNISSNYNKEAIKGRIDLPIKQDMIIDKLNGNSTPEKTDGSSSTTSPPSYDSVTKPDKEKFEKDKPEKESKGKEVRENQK

O=S(=O)(Nc1nccs1)c1ccc(-c2nc(-c3ccccc3)c(-c3ccccc3)[nH]2)cc1 [Compound 1, 4-(4,5-Diphenyl-1H-imidazol-2-yl)-N-thiazol-2-yl-benzenesulfonamide]
IC50: 0.1 to 0.5 µM

O=S(=O)(Nc1nccs1)c1ccc(-c2nnc(C(c3ccccc3)c3ccccc3)[nH]2)cc1 [Compound 3, 4-(5-Benzhydryl-4H-[1,2,4]triazol-3-yl)-N-thiazol-2-yl-benzenesulfonamide]
IC50: 0.1 to 0.5 µM

Cc1nc(-c2ccc(S(=O)(=O)Nc3nccs3)cc2)[nH]c1-c1ccccc1 [Compound 4, 4-(4-Methyl-5-phenyl-1H-imidazol-2-yl)-N-thiazol-2-yl-benzenesulfonamide]
IC50: 0.5 to 1 µM

O=S(=O)(Nc1nccs1)c1ccc(-c2ncc(C(c3ccccc3)c3ccccc3)[nH]2)cc1 [Compound 6, 4-(5-Benzhydryl-1H-imidazol-2-yl)-N-thiazol-2-yl-benzenesulfonamide]
IC50: 0.1 to 0.5 µM

O=S(=O)(Nc1nccs1)c1ccc(-c2ncc(Cc3cc(F)cc(F)c3)[nH]2)cc1 [Compound 7, 4-[5-(3,5-Difluoro-benzyl)-1H-imidazol-2-yl]-N-thiazol-2-yl-benzenesulfonamide]
IC50: 0.1 to 0.5 µM

O=S(=O)(Nc1nccs1)c1ccc(-c2ncc(Cc3ccc(Cl)cc3)[nH]2)cc1 [Compound 8, 4-[5-(4-Chloro-benzyl)-1H-imidazol-2-yl]-N-thiazol-2-yl-benzenesulfonamide]
IC50: 0.1 to 0.5 µM

O=S(=O)(Nc1nccs1)c1ccc(-c2nc(CCCOc3ccc(Cl)cc3)c[nH]2)cc1 [Compound 9, 4-{4-[3-(4-Chloro-phenoxy)-propyl]-1H-imidazol-2-yl}-N-thiazol-2-yl-benzenesulfonamide]
IC50: 0.5 to 1 µM

O=S(=O)(Nc1nccs1)c1ccc(-c2nc3ccccc3[nH]2)cc1 [Compound 10, 4-(1H-Benzoimidazol-2-yl)-N-thiazol-2-yl-benzenesulfonamide]
IC50: > 1 µM

O=S(=O)(Nc1nccs1)c1ccc(-c2nc(CCCOc3ccc(Cl)cc3Cl)c[nH]2)cc1 [Compound 11, 4-{4-[3-(2,4-Dichloro-phenoxy)-propyl]-1H-imidazol-2-yl}-N-thiazol-2-yl-benzenesulfonamide]
IC50: < 0.1 µM

O=S(=O)(Nc1nccs1)c1ccc(-c2nc(C3CCC(c4ccc(Cl)cc4)CC3)c[nH]2)cc1 (stereo not shown) [Compound 12, 4-{4-[4-(4-Chloro-phenyl)-cyclohexyl]-1H-imidazol-2-yl}-N-thiazol-2-yl-benzenesulfonamide]
IC50: < 0.1 µM

O=S(=O)(Nc1nccs1)c1ccc(-c2nc(Cc3ccc(F)cc3Cl)c[nH]2)cc1 [Compound 13, 4-[4-(2-Chloro-4-fluoro-benzyl)-1H-imidazol-2-yl]-N-thiazol-2-yl-benzenesulfonamide]
IC50: < 0.1 µM

O=S(=O)(Nc1nccs1)c1ccc(-c2nc(CCc3ccccc3Cl)c[nH]2)cc1 [Compound 14, 4-{4-[2-(2-Chloro-phenyl)-ethyl]-1H-imidazol-2-yl}-N-thiazol-2-yl-benzenesulfonamide]
IC50: 0.1 to 0.5 µM

O=S(=O)(Nc1nccs1)c1ccc(-c2nc(CCc3ccc(F)cc3)c[nH]2)cc1 [Compound 15, 4-{4-[2-(4-Fluoro-phenyl)-ethyl]-1H-imidazol-2-yl}-N-thiazol-2-yl-benzenesulfonamide]
IC50: 0.1 to 0.5 µM

O=S(=O)(Nc1nccs1)c1ccc(-c2nc(Cc3cccc(Cl)c3)c[nH]2)cc1 [Compound 16, 4-[4-(3-Chloro-benzyl)-1H-imidazol-2-yl]-N-thiazol-2-yl-benzenesulfonamide]
IC50: < 0.1 µM

COc1ccc(CCc2c[nH]c(-c3ccc(S(=O)(=O)Nc4nccs4)cc3)n2)cc1Cl [Compound 18, 4-{4-[2-(3-Chloro-4-methoxy-phenyl)-ethyl]-1H-imidazol-2-yl}-N-thiazol-2-yl-benzenesulfonamide]
IC50: 0.1 to 0.5 µM

O=S(=O)(Nc1nccs1)c1ccc(-c2nc(CCc3ccc(C(F)(F)F)cc3)c[nH]2)cc1 [Compound 19, N-Thiazol-2-yl-4-{4-[2-(4-trifluoromethyl-phenyl)-ethyl]-1H-imidazol-2-yl}-benzenesulfonamide]
IC50: 0.1 to 0.5 µM

Cc1ccc(C2(c3c[nH]c(-c4ccc(S(=O)(=O)Nc5nccs5)cc4)n3)CCCCC2)cc1 [Compound 21, N-Thiazol-2-yl-4-[4-(1-p-tolyl-cyclohexyl)-1H-imidazol-2-yl]-benzenesulfonamide]
IC50: 0.1 to 0.5 µM

O=S(=O)(Nc1nccs1)c1ccc(-c2nc(CCc3cc(C(F)(F)F)ccc3C(F)(F)F)c[nH]2)cc1 [Compound 22, 4-{4-[2-(2,5-Bis-trifluoromethyl-phenyl)-ethyl]-1H-imidazol-2-yl}-N-thiazol-2-yl-benzenesulfonamide]
IC50: 0.1 to 0.5 µM

O=S(=O)(Nc1nccs1)c1ccc(-c2nc(Cc3ccc(F)c(F)c3)c[nH]2)cc1 [Compound 23, 4-[4-(3,4-Difluoro-benzyl)-1H-imidazol-2-yl]-N-thiazol-2-yl-benzenesulfonamide]
IC50: 0.1 to 0.5 µM

O=S(=O)(Nc1nccs1)c1ccc(-c2nc(C3(c4ccc(Cl)cc4)CCC3)c[nH]2)cc1 [Compound 25, 4-{4-[1-(4-Chloro-phenyl)-cyclobutyl]-1H-imidazol-2-yl}-N-thiazol-2-yl-benzenesulfonamide]
IC50: 0.1 to 0.5 µM

O=S(=O)(Nc1nccs1)c1ccc(-c2nc(CCc3cc(Cl)cc(Cl)c3)c[nH]2)cc1 [Compound 26, 4-{4-[2-(3,5-Dichloro-phenyl)-ethyl]-1H-imidazol-2-yl}-N-thiazol-2-yl-benzenesulfonamide]
IC50: < 0.1 µM

Cc1cccc(Cc2c[nH]c(-c3ccc(S(=O)(=O)Nc4nccs4)cc3)n2)c1 [Compound 27, 4-[4-(3-Methyl-benzyl)-1H-imidazol-2-yl]-N-thiazol-2-yl-benzenesulfonamide]
IC50: 0.1 to 0.5 µM

O=S(=O)(Nc1nccs1)c1ccc(-c2nc(CCc3cccc(Cl)c3)c[nH]2)cc1 [Compound 28, 4-{4-[2-(3-Chloro-phenyl)-ethyl]-1H-imidazol-2-yl}-N-thiazol-2-yl-benzenesulfonamide]
IC50: 0.1 to 0.5 µM

Cc1ccc(C)c(CCc2c[nH]c(-c3ccc(S(=O)(=O)Nc4nccs4)cc3)n2)c1 [Compound 29, 4-{4-[2-(2,5-Dimethyl-phenyl)-ethyl]-1H-imidazol-2-yl}-N-thiazol-2-yl-benzenesulfonamide]
IC50: 0.1 to 0.5 µM

Cc1ccc(Cc2c[nH]c(-c3ccc(S(=O)(=O)Nc4nccs4)cc3)n2)cc1 [Compound 32, 4-[4-(4-Methyl-benzyl)-1H-imidazol-2-yl]-N-thiazol-2-yl-benzenesulfonamide]
IC50: > 1 µM

Cc1ccccc1CCc1c[nH]c(-c2ccc(S(=O)(=O)Nc3nccs3)cc2)n1 [Compound 33, N-Thiazol-2-yl-4-[4-(2-o-tolyl-ethyl)-1H-imidazol-2-yl]-benzenesulfonamide]
IC50: 0.5 to 1 µM

O=S(=O)(Nc1nccs1)c1ccc(-c2nc(Cc3ccc(C(F)(F)F)cc3)c[nH]2)cc1 [Compound 34, N-Thiazol-2-yl-4-[4-(4-trifluoromethyl-benzyl)-1H-imidazol-2-yl]-benzenesulfonamide]
IC50: 0.1 to 0.5 µM

O=S(=O)(Nc1nccs1)c1ccc(-c2nc(Cc3ccccc3F)c[nH]2)cc1 [Compound 35, 4-[4-(2-Fluoro-benzyl)-1H-imidazol-2-yl]-N-thiazol-2-yl-benzenesulfonamide]
IC50: 0.5 to 1 µM

O=S(=O)(Nc1nccs1)c1ccc(-c2nc(Cc3ccc(Cl)c(Cl)c3)c[nH]2)cc1 [Compound 36, 4-[4-(3,4-Dichloro-benzyl)-1H-imidazol-2-yl]-N-thiazol-2-yl-benzenesulfonamide]
IC50: < 0.1 µM

O=S(=O)(Nc1nccs1)c1ccc(-c2nc(C3(c4ccccc4)CC3)c[nH]2)cc1 [Compound 41, 4-[4-(1-Phenyl-cyclopropyl)-1H-imidazol-2-yl]-N-thiazol-2-yl-benzenesulfonamide]
IC50: > 1 µM

O=S(=O)(Nc1nccs1)c1ccc(-c2nc(Cc3ccc(Oc4ccccc4)cc3)c[nH]2)cc1 [Compound 42, 4-[4-(4-Phenoxy-benzyl)-1H-imidazol-2-yl]-N-thiazol-2-yl-benzenesulfonamide]
IC50: < 0.1 µM

O=S(=O)(Nc1nccs1)c1ccc(-c2nc(Cc3cccc(OC(F)(F)F)c3)c[nH]2)cc1 [Compound 43, N-Thiazol-2-yl-4-[4-(3-trifluoromethoxy-benzyl)-1H-imidazol-2-yl]-benzenesulfonamide]
IC50: 0.5 to 1 µM

COc1ccc(C2(c3c[nH]c(-c4ccc(S(=O)(=O)Nc5nccs5)cc4)n3)CC2)cc1 [Compound 44, 4-{4-[1-(4-Methoxy-phenyl)-cyclopropyl]-1H-imidazol-2-yl}-N-thiazol-2-yl-benzenesulfonamide]
IC50: 0.5 to 1 µM

O=S(=O)(Nc1nccs1)c1ccc(-c2nc(C(c3ccccc3)C3CCCCC3)c[nH]2)cc1 (stereo not shown) [Compound 47, 4-[4-(Cyclohexyl-phenyl-methyl)-1H-imidazol-2-yl]-N-thiazol-2-yl-benzenesulfonamide]
IC50: 0.1 to 0.5 µM

O=S(=O)(Nc1nccs1)c1ccc(-c2nc(Cc3ccc4c(c3)OCO4)c[nH]2)cc1 [Compound 49, 4-(4-Benzo[1,3]dioxol-5-ylmethyl-1H-imidazol-2-yl)-N-thiazol-2-yl-benzenesulfonamide]
IC50: 0.5 to 1 µM

O=S(=O)(Nc1nccs1)c1ccc(-c2nc(Cc3ccccc3C(F)(F)F)c[nH]2)cc1 [Compound 51, N-Thiazol-2-yl-4-[4-(2-trifluoromethyl-benzyl)-1H-imidazol-2-yl]-benzenesulfonamide]
IC50: 0.1 to 0.5 µM

CS(=O)(=O)c1ccc(Cc2c[nH]c(-c3ccc(S(=O)(=O)Nc4nccs4)cc3)n2)cc1 [Compound 54, 4-[4-(4-Methanesulfonyl-benzyl)-1H-imidazol-2-yl]-N-thiazol-2-yl-benzenesulfonamide]
IC50: > 1 µM

O=S(=O)(Nc1nccs1)c1ccc(-c2nc(CCc3cc(Cl)cc(Cl)c3)c(I)[nH]2)cc1 [Compound 68, 4-{4-[2-(3,5-Dichloro-phenyl)-ethyl]-5-iodo-1H-imidazol-2-yl}-N-thiazol-2-yl-benzenesulfonamide]
IC50: < 0.1 µM

O=S(=O)(Nc1nccs1)c1ccc(-c2nnc(Cc3ccc(Cl)c(Cl)c3)[nH]2)cc1 [Compound 95, 4-[5-(3,4-Dichloro-benzyl)-4H-[1,2,4]triazol-3-yl]-N-thiazol-2-yl-benzenesulfonamide]
IC50: < 0.1 µM

O=S(=O)(Nc1nccs1)c1ccc(-c2nnc(Cc3cccc(Cl)c3)[nH]2)cc1 [Compound 96, 4-[5-(3-Chloro-benzyl)-4H-[1,2,4]triazol-3-yl]-N-thiazol-2-yl-benzenesulfonamide]
IC50: 0.1 to 0.5 µM
